Measurements published in ChEMBL document CHEMBL1131505, “(+)-cis-N-ethyleneamino-N-normetazocine derivatives. Novel and selective sigma ligands with antagonist properties” (J Med Chem, 1998).

How the values were obtained:
[1] = target: T1, Opioid receptor (Rattus norvegicus, UniProt P33533+P34975+P33535); assay: Inhibition of [3H]naloxone binding to Opioid receptors of rat brain membranes; format: cell membranes, Membrane
[2] = target: Sigma 2 receptor; assay: Inhibition of [3H]DTG binding to sigma-2 sites of guinea pig brain membranes
[3] = target: T2, D(2) dopamine receptor (Rattus norvegicus, UniProt P61169); assay: Inhibition of [3H]spiroperidol binding to Dopamine receptor D2 of rat striatal membranes; format: cell membranes, Membrane
[4] = Compound was tested for its binding affinity towards PCP receptor in rat membranes in the presence of [3H]-(+)-SKF- 10,047; format: cell membranes
[5] = target: Serotonin 2 (5-HT2) receptor; assay: Inhibition of [3H]ketanserin binding to 5-hydroxytryptamine 2 receptor of guinea pig frontal cortex membranes; format: tissue-based, Cavia porcellus
[6] = target: T3, Muscarinic acetylcholine receptor M2 (Rattus norvegicus, UniProt P10980); assay: Inhibition of [3H]N-methylscopolamine binding to Muscarinic acetylcholine receptor M2 of rat heart membranes; format: cell membranes, Membrane
T3 sequence (P10980 whole entry): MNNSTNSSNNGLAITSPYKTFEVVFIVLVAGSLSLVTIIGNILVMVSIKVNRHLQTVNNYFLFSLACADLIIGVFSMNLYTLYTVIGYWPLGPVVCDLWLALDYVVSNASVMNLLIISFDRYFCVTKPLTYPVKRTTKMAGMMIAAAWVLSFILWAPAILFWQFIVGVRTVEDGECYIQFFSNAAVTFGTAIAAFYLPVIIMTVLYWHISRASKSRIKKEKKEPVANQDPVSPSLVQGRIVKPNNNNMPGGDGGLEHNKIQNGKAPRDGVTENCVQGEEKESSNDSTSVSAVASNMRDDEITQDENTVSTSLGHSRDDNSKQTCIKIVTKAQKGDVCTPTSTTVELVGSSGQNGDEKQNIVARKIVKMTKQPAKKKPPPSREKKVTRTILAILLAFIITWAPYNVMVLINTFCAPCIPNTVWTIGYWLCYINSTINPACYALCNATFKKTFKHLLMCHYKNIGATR

[7] = target: T1, Opioid receptor; assay: Compound was tested for its binding affinity towards Opioid receptors in rat membranes in the presence of [3H]naloxone; format: cell membranes
[8] = target: T2, D(2) dopamine receptor; assay: Binding affinity towards Dopamine receptor D2 in the rat striatal membranes using [3H]spiroperidol; format: cell membranes, Striatum, Membrane

T2 sequence (P61169 whole entry): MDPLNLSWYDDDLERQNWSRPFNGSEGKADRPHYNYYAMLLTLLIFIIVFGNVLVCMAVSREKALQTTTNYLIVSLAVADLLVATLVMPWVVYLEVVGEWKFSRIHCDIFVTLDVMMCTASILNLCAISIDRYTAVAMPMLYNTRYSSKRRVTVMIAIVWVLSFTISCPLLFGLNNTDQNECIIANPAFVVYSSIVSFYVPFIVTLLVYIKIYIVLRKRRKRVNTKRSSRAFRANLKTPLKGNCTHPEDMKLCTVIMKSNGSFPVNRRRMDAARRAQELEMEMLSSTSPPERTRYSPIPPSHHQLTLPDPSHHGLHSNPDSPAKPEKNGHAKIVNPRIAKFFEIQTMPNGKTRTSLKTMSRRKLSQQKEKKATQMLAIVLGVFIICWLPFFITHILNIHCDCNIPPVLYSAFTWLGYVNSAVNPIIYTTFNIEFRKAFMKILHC

| SMILES | Ki [1] [nM] | Ki [2] [nM] | Ki [3] [nM] | Ki [4] [nM] | Ki [5] [nM] | Ki [6] [nM] | Ki [7] [nM] | Ki [8] [nM] |
| --- | --- | --- | --- | --- | --- | --- | --- | --- |
| C[C@@H]1[C@@H]2Cc3ccc(O)cc3[C@]1(C)CCN2CCNc1ccccc1 | 79.8 | 111 |  |  |  |  |  |  |
| C[C@@H]1[C@@H]2Cc3ccc(O)cc3[C@]1(C)CCN2CCN1CCOCC1 | 8168 | 300 | > 10000 | > 1000 | > 10000 | 419 |  |  |
| C[C@@H]1[C@@H]2Cc3ccc(O)cc3[C@]1(C)CCN2CCN(C)c1ccccc1 | 28.8 | 124 |  |  |  |  |  |  |
| CCN(CCN1CC[C@@]2(C)c3cc(O)ccc3C[C@H]1[C@H]2C)c1ccccc1 | 211 | 151 |  |  |  |  |  |  |
| C[C@@H]1[C@@H]2Cc3ccc(O)cc3[C@]1(C)CCN2CCNCc1ccccc1 |  | 187 |  |  |  |  | 366 |  |
| C[C@@H]1[C@@H]2Cc3ccc(O)cc3[C@]1(C)CCN2CCN1CCCCCC1 | 9128 | 151 | > 10000 | 50.2 | > 10000 | 1840 |  |  |
| C[C@@H]1[C@@H]2Cc3ccc(O)cc3[C@]1(C)CCN2CCN(C)C | 2888 | 347 | > 10000 | 3380 | > 10000 | > 10000 |  |  |
| C[C@@H]1[C@@H]2Cc3ccc(O)cc3[C@]1(C)CCN2CCNC1CCCCC1 | 1466 | 328 | > 10000 | > 10000 | > 10000 | > 10000 |  |  |
| CCN(CC)CCN1CC[C@@]2(C)c3cc(O)ccc3C[C@H]1[C@H]2C | 12290 | 378 | > 10000 | 7640 | > 10000 | 1990 |  |  |
| C[C@@H]1[C@@H]2Cc3ccc(O)cc3[C@]1(C)CCN2CCN1CCCCC1 | 12000 | 114 |  | > 10000 | > 10000 | 7800 |  | > 10000 |
| C[C@@H]1[C@@H]2Cc3ccc(O)cc3[C@]1(C)CCN2CCN1CCCC1 | 3800 | 260 | > 10000 | > 10000 | > 10000 | 1950 |  |  |
| CC(C)=CCN1CC[C@]2(C)c3cc(O)ccc3C[C@H]1[C@H]2C (single isomer, unassigned) [(+)-PENTAZOCINE] |  |  |  | 4320 |  |  | 2370 |  |
| C=CCN1CC[C@]2(C)c3cc(O)ccc3CC1[C@@H]2C (single isomer, unassigned; (+)) |  |  | > 10000 | 448 | > 10000 | > 10000 | 1900 |  |
